“Also recorded” adds a separate entry of the source.
Experiments:
[1] = molecular target: L-DOPA 2,3-dioxygenase from S. hygroscopicus jingganensis (ShjDDO) (Streptomyces hygroscopicus, UniProt H2JL11); assay: UV-visible steady-state assay of L-DOPA 2,3-dioxygenase (ShjDDO); assay type: biochemical; details: for kcat at 22 °C and 100% O2 saturation / kSP,O2 × 10^2 at 22 °C / kSP catechol × 10^2 at 22 °C: S. hygroscopicus jingganensis enzyme; for kcat at 22 °C and 100% O2 saturation: pH 7.5; for kSP,O2 × 10^2 at 22 °C / kSP catechol × 10^2 at 22 °C: values are kSP × 10^2; for kSP catechol × 10^2 at 22 °C: kSP = kcat/KM; for activity / turnover as substrate: ShjDDO, aerobic reaction observed by UV–visible spectroscopy; for kSP, O2 (μM^-1 min^-1) at pH 7.5 relative to L-DOPA x 100 for ShjDDO: percentage of the value for L-DOPA
Sequence of L-DOPA 2,3-dioxygenase from S. hygroscopicus jingganensis (ShjDDO) (H2JL11 1-162): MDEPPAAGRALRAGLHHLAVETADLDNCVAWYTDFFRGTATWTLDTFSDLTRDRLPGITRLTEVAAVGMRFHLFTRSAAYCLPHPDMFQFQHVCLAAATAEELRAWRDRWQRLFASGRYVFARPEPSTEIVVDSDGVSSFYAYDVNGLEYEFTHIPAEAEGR
Description: (§1) Purified, reconstituted L-DOPA 2,3-dioxygenases were assessed for activity by monitoring the cleavage of catecholic substrates using UV–visible spectroscopy. 3,4-Dihydroxyhydrocinnamic acid (DHHCA, 3) was purchased from Sigma-Aldrich. 6-CyanoDHHCA (5) and 6-bromoDHHCA (4) were synthesized as described above.
(§2) Molecular oxygen (AirGas) was bubbled directly into the reaction buffer through a glass-bonded silica gas diffuser (Bubblemac Industries, Inc.) or as a gas mixture blended with air (AirGas). Solutions were bubbled with oxygen for several minutes prior to use and for the duration of the experiment. To determine the K M for oxygen (i.e., K MO2), L-DOPA 2,3-dioxygenases (0.25–4.0 μM) were reacted with a saturating concentration of the catecholic substrate DHHCA/6-X-DHHCA derivatives (2–10× the K M sufficient to achieve k cat) and various oxygen concentrations (21–100% or 270–1300 μM at 22 °C). The concentration of oxygen was varied by changing the percentage of oxygen in the blend using a galvanic oxygen sensor and oxygen monitor (AirGas) and then bubbling solutions, as described above. Molecular oxygen percentages were converted to molar concentrations using a reference temperature of 22 °C. The reaction of L-DOPA 2,3-dioxygenases with DHHCA/6-X-DHHCA derivatives as a function of oxygen concentration was followed by the appearance of the steady-state cleavage product by using UV–visible spectroscopy.
(§3) The extinction coefficients for steady-state cleavage products of DHHCA and synthetic 6-X-DHHCA derivatives were determined by reacting various concentrations of DHHCA/6-X-DHHCA derivatives at 22 °C with a 10-fold stoichiometric excess of enzyme (quantified by Fe^II–see Reconstitution) in 50 mM HEPES buffer with 154 mM NaCl at pH 7.5, bubbled with 100% oxygen to a final concentration of 780–910 μM, depending on the volume of oxygenated buffer that comprised the reaction (60–70%). Substrate solutions were prepared from authentic synthetic standards using an analytical balance, and reactions were run to completion as assessed by the appearance of the steady-state product. The λmax and extinction coefficients of DHHCA, 6-cyanoDHHCA, and 6-bromoDHHCA were determined herein as ε380 = 40 740 ± 820 M^–1cm^–1, ε385 = 33 256 ± 484 M^–1cm^–1, and ε380 = 35 282 ± 1190 M^–1cm^–1, respectively (Figure S52).
(§4) Steady-state kinetic data were obtained through a UV–visible spectroscopic assay. Initial rates were obtained from the slopes of the linear regions of the progress curves and plotted versus substrate concentration to yield a hyperbola, which was analyzed using the Michaelis–Menten expression and nonlinear least-squares fitting (NLSF) with Origin 6.0 (Microcal). Two possible derivations of the Michaelis–Menten expression were used: 1) the traditional expression y = k cat × x/(K M + x), where y is Rate/E 0 or the rate of product formation (μM/min) divided by the starting enzyme concentration (μM), x is substrate concentration (μM) and k SP (also known as k cat × K M ^–1)–that is, the second-order rate constant of enzyme and substrate–is extracted from the fitted constants; or 2) the alternative derivation that extracts k SP and k cat directly from the fit: y = (k SP × x)/((1 + k SP × x)/k cat), and where y is Rate/E 0 or the rate of product formation (μM/min) divided by the starting enzyme concentration (μM), x is substrate concentration (μM), k SP is equivalent to k cat×K M ^–1, and K M is extracted from k cat/k cat×K M ^–1.

[2] = molecular target: L-DOPA 2,3-dioxygenase from S. lincolnensis (LmbB1) (Streptomyces lincolnensis, UniProt Q54354); assay: UV-visible steady-state assay of L-DOPA 2,3-dioxygenase (LmbB1); assay type: biochemical; details: for activity / turnover as substrate: aerobic reaction observed by UV–visible spectroscopy; for kcat at 22 °C and 100% O2 saturation / kSP,O2 × 10^2 at 22 °C / kSP catechol × 10^2 at 22 °C: S. lincolnensis enzyme; for kcat at 22 °C and 100% O2 saturation: pH 7.5; for kSP,O2 × 10^2 at 22 °C / kSP catechol × 10^2 at 22 °C: values are kSP × 10^2; for kSP catechol × 10^2 at 22 °C: kSP = kcat/KM; for kSP, O2 (μM^-1 min^-1) at pH 7.5 relative to L-DOPA x 100 for LmbB1: percentage of the value for L-DOPA
Sequence of L-DOPA 2,3-dioxygenase from S. lincolnensis (LmbB1) (Q54354 entry or part of it): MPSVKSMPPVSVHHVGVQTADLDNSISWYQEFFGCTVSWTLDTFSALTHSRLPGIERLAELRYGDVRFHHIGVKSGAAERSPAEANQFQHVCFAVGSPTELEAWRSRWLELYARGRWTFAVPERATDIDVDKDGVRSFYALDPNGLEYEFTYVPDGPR
Description: as §1, §2, §3, §4

[3] = Cyclic voltammetry (redox potentials on a GCE); assay type: physicochemical; details: for (E p)a Oxidation / (E p)c Reduction / E1/2 / Ipa/Ipc / ΔE p: GCE (d = 2 mm); for E1/2 (mV) at pH 7.4 relative to L-DOPA x 100: percentage of the value for L-DOPA
Description: Reduction and oxidation potentials were experimentally performed by cyclic voltammetry (CV) at biological pH 7.4, as previously described. All samples were run on a CH Instruments 600E Potentiostat in a one-compartment cell equipped with a three-electrode system arrangement. The three-electrode system included a saturated calomel electrode as the reference electrode, a platinum wire as the auxiliary electrode, and a glassy carbon electrode (GCE, d = 2 mm) as the working electrode. The GCE was polished between each sample scan with an aqueous slurry of alumina powder on a microcloth pad. The electrodes were rinsed with distilled water prior to the next scan. All scans were conducted under nitrogen for oxygen displacement and at room temperature (rt, 25 ± 1 °C). All samples were prepared as close to the scan as possible (approximately 2 min each). Each sample (5 mL) contained 0.1 mM catecholic substrate and 1 μM DMSO in 0.1 M phosphate buffer at a pH of 7.4 or 6.0. […] The cyclic voltammograms for the compounds at both pH 6.0 and 7.4 are available in Figures S40–S51.

[4] = Determination of pKa values by spectrophotometric titration; details: for pK a value: first catecholic deprotonation, determined spectroscopically from pH 3 to 12.5; for Catecholic pKa value relative to L-DOPA x 100: percentage of the value for L-DOPA
Description: A buffer system utilizing five different buffers was prepared to cover the pH range of 3.0 to 12.50. A Thermo Scientific Orion Star A211 pH meter was used to measure and determine the pH of each buffer. The pH meter was calibrated using three- and four-point calibration with pH values of 4.00, 7.01, and 10.01 and 4.00, 7.01, 10.01, and 12.00, respectively.
The buffer systems were prepared as previously described and included: NaOAc/HOAc buffers (C = 0.1 M; I = 0.1 M) were used to cover the pH range of 3.0 to 5.50. KH2PO4/K2HPO4 buffers (C = 0.05 M; I = 0.1 M) were used to cover the pH range of 6.00 to 8.00. CHES buffers (C = 0.05 M; I = 0.1 M) were used to cover the pH range of 8.50 to 10.50. Na2HPO4/Na3PO4 buffers (C = 0.05 M; I = 0.1 M) were used to cover the pH range of 11.00 to 12.00. KCl buffers (C = 0.1 M; I = 0.1 M) were used to cover the pH range of 12.00 to 12.50.
The absorbance spectra of the compounds were determined at each pH as previously described. Briefly, a stock solution was prepared for each compound by weighing 2 mg of the compound using a high-precision analytical balance. Each compound was then dissolved in DMSO at a concentration of 10 mM. A UV-transparent 96-well microplate (Corning clear acrylic 96-well UV plate with a UV-transparent flat bottom) was loaded with 196 μL of buffer solution and 4 μL of the catechol stock in each well to get a final concentration of 200 μM. DMSO (4 μL) was added to 196 μL of the appropriate buffer to produce a blank solution for each buffer.
The 96-well plate was loaded into the microplate reader and incubated at 30 °C and shaken for 10 min before the reading. Absorbance readings were completed by using a Synergy HTX 15032517 microplate reader. Each well was read at wavelengths from 210 to 600 nm with 2-nm increments for each scan over a duration of 60 min.
The data were analyzed as previously described. Raw UV-spectra scans were exported to the Excel program. They were first processed by subtracting the reading of the blank solutions from the reading of each compound at the corresponding wavelengths. […] Finally, the spectral difference between the pH 3.0 buffer and the spectra at all other pH values was plotted. Additionally, the spectral difference between the pH 4.0 buffer and the spectra at all other higher pH values was plotted. The wavelengths for the maximum positive and negative absorbance were determined by using the graphs of the spectral difference plots, both for the pH 3.0 and pH 4.0 spectral difference plots. The absolute maximum positive and total absorbance differences at these chosen wavelengths were plotted against the pH of each buffer. The data were imported into the Origin 6.0 program, and the pK a values were determined with a nonlinear regression using eq : 1 Absorbancetotal=εHA−εA−[10^(pH−pKa)]/1+10^(pH−pKa)×[St]
εHA is the extinction coefficients of the acid form of the compound, and εA ^– is the extinction coefficient of the base form of the compound (i.e., the minima and maxima of the absorbance difference curve, respectively), and [S t] is the total compound concentration.

[5] = parameters: method as in Biochemistry 2021, 60, 32, 2492–2507; details: similarly 6-substituted dopamine; ref Biochemistry 2021, 60, 32, 2492–2507; cited from earlier work
[6] = test system: S. hygroscopicus jingganensis L-DOPA 2,3-dioxygenase (ShjDDO); assay: Presteady state stopped-flow kinetic assay, modeled with KinTek Explorer; assay type: biochemical, Streptomyces hygroscopicus jingganensis; details: ratio k6/k7; presteady state with ShjDDO
Description: Reaction temperature was controlled at 14 ± 0.5 °C by a circulating water bath. […] Stock solutions of 6-[…] prepared in DMSO. […] ShjDDO was reconstituted with iron(II) sulfate heptahydrate, gel filtered into the reaction buffer, and loaded into the drive syringe. […] Fifteen to twenty progress curves from the same experimental conditions were averaged in the KinTek Stopped Flow software and exported to KinTek Explorer for modeling. Between experiments, the instrument drive syringes were cleaned with acid, base, and water; soaked in 1% Hellmanex detergent for 30 min at ∼30-35 °C; thoroughly rinsed with water; and stored in 10% ethanol. […] state kinetic data were analyzed by fitting to simulated mechanisms using the KinTek Explorer software (KinTek Corp, Austin, TX). KinTek Explorer simulates experimental results by using direct numerical integration of rate equations for the kinetic model and yields estimates for the rate constants of microscopic steps. […] state experiments were modeled using KinTek Explorer according to a defined reaction pathway, as described in the Results and Discussion and shown in Scheme . The extinction coefficients of the DHHCA and 6-[…] semialdehyde products were independently determined as described above and fixed during fitting. Some rates were fixed as either “fast” (i.e., 1 × 10^9) or very slow (1 × 10^-12, i.e., ∼0) as described in the text. The equilibrium represented by k 1 and k -1 was fixed at the ratio of substrate charge states as predicted by the experimentally determined pK a values (Table ) and the Henderson-Hasselbach equation. Extinction coefficients were fitted and/or fixed during fitting as described in the text and interpreted using the observable expression: […], where a is the extinction coefficient applied to ESQ, b is the independently experimentally determined extinction coefficient on P, and c is a y-axis offset. […] ESO2 is the ternary complex of enzyme, substrate, and oxygen. ESQ represents the putative semiquinone intermediate, a UV-absorbing species, and ESQ_X is the species formed from the nonproductive quenching of the semiquinone. […] EP is the enzyme-product complex, and P is the free semialdehyde product. P can then degrade nonenzymatically to the spectroscopically silent P_X. Errors on each fit were calculated from 2[…] at 0.83 Chi^2. The KinTek Explorer program FitSpace explores the uniqueness of a particular fit to the data by measuring the dependence of the sum square error (SSE) on each pair of parameters, while allowing all other parameters to vary in seeking the best fit. […]

[7] = ShjDDO active site, ratio to DHHCA
[8] = LmbB1 active site, ratio to DHHCA

Row | SMILES | kcat at 22 °C and 100% O2 saturation [1] | kSP,O2 × 10^2 at 22 °C [1] [μM^–1 min^–1] | kSP catechol × 10^2 at 22 °C [1] [μM^–1 min^–1] | activity / turnover as substrate [1] | kSP, O2 (μM^-1 min^-1) at pH 7.5 relative to L-DOPA x 100 for ShjDDO [1] [%] | activity / turnover as substrate ([2]; LmbB1) | kcat at 22 °C and 100% O2 saturation [2] | kSP,O2 × 10^2 at 22 °C [2] [μM^–1 min^–1] | kSP catechol × 10^2 at 22 °C [2] [μM^–1 min^–1] | kSP, O2 (μM^-1 min^-1) at pH 7.5 relative to L-DOPA x 100 for LmbB1 [2] [%] | (E p)a Oxidation ([3]; pH 6.0) [mV] | (E p)c Reduction ([3]; pH 6.0) [mV] | E1/2 ([3]; pH 6.0) [mV] | Ipa/Ipc ([3]; pH 6.0) | ΔE p ([3]; pH 6.0) [mV] | (E p)a Oxidation ([3]; pH 7.4) [mV] | (E p)c Reduction ([3]; pH 7.4) | E1/2 (mV) at pH 7.4 relative to L-DOPA x 100 [3] [%] | pK a value [4] | Catecholic pKa value relative to L-DOPA x 100 [4] [%] | also measured
1 | O=C(O)CCc1cc(O)c(O)cc1Br [6-BromoDHHCA (4), 3-(2-bromo-4,5-dihydroxyphenyl) propanoic acid] | 1.5 ± 0.1 sec^–1 | 15.8 ± 1.0 | 9.8 ± 1.9 | measurable activity | ~11 | measurable activity | 1.6 × 10^–1 ± 4.6 × 10 ^–3 sec^–1 | 3.5 ± 0.5 | 4.6 ± 0.5 | 4 | 267 | 154 | 210.5 | 1.43 | 113 | 195 | 59 mV | 63 | 8.36 ± 0.07 | 95 | k SP,O2 compared with DHHCA ([1]; ShjDDO active site): equivalent to DHHCA (3) within error; K M weaker than DHHCA [1, 7]: 2 fold; k cat faster than DHHCA [1, 7]: 2 fold; K M tighter than DHHCA ([2]; LmbB1, ratio to DHHCA): 4.5 fold; k SP,O2 slower than DHHCA [2, 8]: more than 5 fold; k cat slower than DHHCA [2, 8]: more than 10 fold; E1/2 ([3]; pH 7.4): 127 mV; Ipa/Ipc ([3]; pH 7.4): 1.21; ΔE p ([3]; pH 7.4): 136 mV
2 | O=C(O)CCc1cc(O)c(O)cc1[N+](=O)[O-] [6-NitroDHHCA (6), 3-(4,5-dihydroxy-2-nitrophenyl) propanoic acid] | – | – | – | no turnover was detected; also recorded: did not undergo turnover | – | no turnover was detected; also recorded: did not undergo turnover | – | – | – | – | 444 | – | – | – | – | 288 | – | – | 6.94 ± 0.06 | – | –
3 | NCCc1cc(O)c(O)cc1Br [Compound 6-bromoDA, 6-bromodopamine, reference compound] | – | – | – | – | 9 | – | – | – | – | 27 | – | – | – | – | – | – | – | 77 | – | 92 | pK a value of dopamine counterpart [5]: 8.09 ± 0.03
4 | O=C(O)CCc1ccc(O)c(O)c1 [DHHCA (3), 3,4-dihydroxyhydrocinnamic acid] | 6.7 × 10^–1 ± 5.0 × 10 ^–2 sec^–1 | 17.7 ± 2.6 | 9.5 ± 2.3 | measurable activity | 13 | measurable activity | 2.1 ± 0.2 sec^–1 | 19.2 ± 3.2 | 13.4 ± 2.5 | 23 | 388 | – | 198.5 | 2.54 | 379 | 333 | –95 mV | 59 | 8.87 ± 0.12 | 101 | productive formation of EI (k 6) faster than the rate of inactivation (k 7) [6]: ~40 times; E1/2 ([3]; pH 7.4): 119 mV; Ipa/Ipc ([3]; pH 7.4): 1.30; ΔE p ([3]; pH 7.4): 428 mV
5 | N[C@@H](Cc1ccc(O)c(O)c1)C(=O)O [L-DOPA (1), L-3,4-dihydroxyphenylalanine] | – | – | – | – | 100 | – | – | – | – | 100 | 362 | 101 | 231.5 | 5.90 | 261 | 315 | – | – | 8.81 ± 0.19 | 100 | –
6 | NCCc1cc(O)c(O)cc1[N+](=O)[O-] [dopamine counterpart of 6-NitroDHHCA (6), 6-nitrodopamine] | – | – | – | – | – | – | – | – | – | – | – | – | – | – | – | – | – | – | – | – | pK a value of dopamine counterpart [5]: 6.23 ± 0.03
